The values that follow come from patent US10865176B2, “Small molecule modulators of microRNA-34a” (The Chinese University of Hong Kong, priority 2012, dated 2020).

Experiment [1] deals with miR-7a, miR-21, miR-23a, miR-29c, miR-34c, miR-219, miR-145, miR-192, miR-215. As to the kind of experiment: qRT-PCR of a panel of other miRNAs in Huh7 cells. Particulars: 10 μM, 48 h. Type of experiment: cell-based, human. The protocol:
(§1) Total RNA from cell cultures and HCC xenograft tumors were extracted using Trizol (Invitrogen) according to manufacturer's protocols. Total RNAs were dissolved into nuclease-free ddH2O. For protein extraction, cells and HCC xenograft tumors were lysed in 1×RIPA buffer with 1 mM PMSF and 1× complete protease inhibitor cocktail (Roche, Indianapolis, Ind.). Both RNA and protein were stored at −80° C.
(§2) Total RNA was reversely transcribed into cDNAs using High Capacity cDNA Reverse Transcription Kit (Applied Biosystems, Foster city, CA, USA) and nude RT kit (Invitrogen) individually. qRT-PCR was performed using SYBR Green PCR master mix (TaKaRa, Dalian, China). GAPDH was used as an endogenous control. For measuring miR-34a expression level, qPCR was performed by using SYBR Green PCR master mixture (Invitrogen) and U6 was used as the internal control. All samples were normalized to internal controls and fold changes were calculated by relative quantification (2^−ΔΔct).

For a further experiment, the system named is Cyclin D1 and Bcl-2. As to the kind of experiment: Expression of miR-34a targets Cyclin D1 and Bcl-2 (qRT-PCR, western blotting) in HCC cells. Type of experiment: cell-based, human. The note with it: 10 μM, 48 h (RNA) or 72 h (protein). The protocol:
as §1, §2
Protein quantification was performed using BCA protein assay kit (Thermo Fisher Scientific, Rockford, Ill., USA). 25-50 μg protein was separated by SDS-PAGE (sodium dodecyl sulfate-polyacrylamide gel electrophoresis) and transferred to PVDF membranes (Bio-Rad). […] Protein expression was detected by autoradiography using Amersham ECL Plus™ Western Blotting Detection Reagents (GE Healthcare, Uppsala, Sweden).

The test system of a further experiment is HepG2 cells. As to the kind of experiment: MTT cell viability assay, HepG2. The class given is cell-based, human. The protocol: (§3) Cell viability was measured by 3-(4,5-Dimethylthiazol-2-yl)-2,5-diphenyltetrazolium bromide (MTT) assay. 1×10^3 Cells were seeded in triplicate on a 96 well plate and were allowed to grow for indicated time points. At each time point a set of cells were incubated with 0.5 mg/ml MTT diluted in 1×PBS. After 2 to 4 h incubation, the MTT solution was removed. The insoluble MTT was dissolved in DMSO. Absorbance at 570 nm was measured by an ELISA plate reader.
For orientation: Formazan colour is commonly taken as a measure of viable cells.

The next experiment concerns Huh7 cells. As to the kind of experiment: MTT cell viability assay, Huh7. Type of experiment: cell-based, human. The note with it: Huh7, 10 μM. The protocol: as §3
Another experiment deals with Bel-7404 cells. As to the kind of experiment: MTT cell viability assay, Bel-7404. Type of experiment: cell-based, human. The protocol: as §3
In a further experiment the test system is PLC cells. As to the kind of experiment: MTT cell viability assay, PLC/PRF/5. The class given is cell-based, human. The protocol: as §3
For the next experiment, the system named is Hep3B cells. As to the kind of experiment: MTT cell viability assay, Hep3B. Particulars: different concentrations and time points. The class given is cell-based, human. The protocol: as §3
The next experiment deals with HCC cells. As to the kind of experiment: MTT cell viability assay, HCC cell lines. The class given is cell-based, human. The note with it: 5 μM. The protocol:
as §3

In a further experiment the test system is miR-34a. As to the kind of experiment: qRT-PCR of pri-miR-34a and miR-34a in xenografted tumors. Particulars: excised tumors after 24 d gavage. Type of experiment: in vivo, nude mice. The protocol: as §1, §2
Tumor volume was calculated as [(Length×Width×Height)[…]]. Treatment was continued for 24 d. Finally, all mice were sacrificed and tumors were excised. Tumor weight was recorded.
For orientation: In qPCR the cycle at which signal appears reflects the starting amount.

A further experiment deals with HepG2 xenografted tumors. As to the kind of experiment: CD31 immunohistochemical staining of HepG2 xenografted tumors (microvessel density). The class given is in vivo, nude mice. The note with it: Rubone treated tumors; control group 67.50; p=0.0098. The protocol:
Immunohistochemical staining was performed on HepG2 xenografted tumor tissues with CD31 specific antibody (Cat #: Y059114, Abcam, Cambridge, Mass.). Subcutaneous tumor tissue sections were incubated with anti-CD31 overnight at 4° C. Mean microvessel density was calculated by averaging vessel counts from three random fields per slide.

In another experiment the test system is miR-34a promoter. As to the kind of experiment: miR-34a promoter luciferase activity assay in HCC cells. The class given is cell-based, human. Particulars: 10 μM. The protocol: The pMIR-REPORT™ luciferase plasmid (1 μg; Ambion) was sequentially double digested with Sac I and Hind III (10 units each, 50 μL reaction; NEB) and was gel purified. Double stranded insert DNA encoding the miR-34a binding site was synthesized through standard oligonucleotide synthesis methods. The sequences used were Forward: 5′z […]-3′ (SEQ ID NO:1) and Reverse: 5′: […]-3′ (SEQ ID NO:2). The insert was hybridized (heated to 95° C., and cooled to 4° C. over 30 min, then held at 4° C. for 60 min) and ligated with T4 ligase (200 units, 10 μL reaction, 1:10 vector/insert ratio; NEB) into the digested pMIR-REPORT™ luciferase vector. Positive colonies were selected by PCR colony screens, and the construction of the pMIR-REPORT™-miR-34a vector was confirmed by double enzyme digestion with NheI, MluI and Nhe I, Hind III (NEB). The luciferase reporter vector containing the miR-34a promoter was kindly provided by Prof. Mendell J T from Johns Hopkins University (21).
MiR-34a reporter, the luciferase reporter vector containing miR-34a promoter and the control vectors were transfected into HCC cells 12 h before compound treatment. The Renilla luciferase vector pRL-SV40 was co-transfected as an internal control. HCC cells were then treated with compound for 48-72 h. The luciferase activity was measured by Dual Luciferase Reporter Assay (Promega) with a Wallac VICTOR^3V luminometer. The ratio of firefly luciferase to Renilla expression was calculated for each of the triplicates.

For a further experiment, the target named is p53 (Homo sapiens, UniProt P04637). As to the kind of experiment: ChIP assay, p53 occupancy on miR-34a promoter. Type of experiment: cell-based. Particulars: HepG2 cells, 10 μM. The protocol: ChIP assay was performed as described before (26). Cross-linked chromatin were incubated overnight with anti-H3 (Cat #: 9003, Cell Signaling Technology), IgG (Cat #: 9003, Cell Signaling Technology), p53 (Cat #: sc-106, Santa Cruz, Cambridge, Mass.). The precipitated DNA were quantitated absolutely by real-time PCR and normalized by respective 2% input.
Sequence of p53 (P04637 whole entry): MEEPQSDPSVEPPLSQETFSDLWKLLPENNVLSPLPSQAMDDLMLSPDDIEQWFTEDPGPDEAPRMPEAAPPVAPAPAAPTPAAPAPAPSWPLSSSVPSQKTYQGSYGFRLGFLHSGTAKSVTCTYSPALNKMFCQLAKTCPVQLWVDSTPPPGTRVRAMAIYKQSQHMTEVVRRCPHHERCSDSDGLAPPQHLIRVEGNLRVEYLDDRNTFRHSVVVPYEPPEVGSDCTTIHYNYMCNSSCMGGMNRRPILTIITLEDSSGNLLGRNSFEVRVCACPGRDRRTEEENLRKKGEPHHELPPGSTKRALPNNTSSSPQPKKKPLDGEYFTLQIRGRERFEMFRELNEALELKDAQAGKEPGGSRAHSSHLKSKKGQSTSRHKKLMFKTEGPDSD

On to `COc1cc(O)c(C(=O)/C=C/c2cc(OC)c(OC)cc2OC)c(OC)c1` [Rubone, 2′-Hydroxy-2,4,4′,5,6′-pentamethoxychalcone], for which the “expression of other p53 regulated miRNAs (miR-34c, miR-145, miR-192, miR-215)” value in experiment [1] is reported as “did not change”. In experiment [1], the “expressions of miR-7a, miR-21, miR-23a, miR-29c, miR-34c and miR-219” value was “not affected”. Also, the “mRNA and protein levels of Cyclin D1 and Bcl-2” value with Cyclin D1 and Bcl-2 (HepG2 cells) is on record as “significantly reduced”; in the experiment on Cyclin D1 and Bcl-2 (Huh7 cells), “significantly reduced”. In addition, the “growth inhibitory effect of Rubone after p53 knockdown (MTT)” value is “significantly reversed by knocking down p53” with HepG2 cells (HepG2, 2 μM siRNAs targeting p53, 10 μM Rubone) and “significantly reversed by knocking down p53” in the experiment on Bel-7404 cells (Bel-7404, 2 μM siRNAs targeting p53, 10 μM Rubone). Moreover, the “cell growth (MTT)” value with HepG2 cells (HepG2, 10 μM) is given as “significantly inhibited the growth”; in the experiment on Huh7 cells, “significantly inhibited the growth”; with Bel-7404 cells (Bel-7404, 10 μM), “significantly inhibited the growth”; in the experiment with PLC cells (10 μM), “significantly inhibited the growth”; in the experiment with HCC cells it was “inhibited the growth of HCC cells slightly”. The “effect of miR-34a inhibitors on growth inhibition by Rubone (MTT)” value is given as “reversed the growth inhibitory effect” with Bel-7404 cells (Bel-7404, 10 μM Rubone with 2 μM miR-34a inhibitors, 72 h) and “reversed the growth inhibitory effect” in the experiment with PLC cells (10 μM Rubone with 2 μM miR-34a inhibitors, 72 h). For the same compound, the “effect of miR-34a mimics on chemosensitivity to Rubone (MTT)” value in the experiment on Bel-7404 cells (Bel-7404, 10 μM Rubone with 2 μM miR-34a mimics, 72 h) was “enhanced the chemosensitivity”; in the experiment with PLC cells (10 μM Rubone with 2 μM miR-34a mimics, 72 h), “enhanced the chemosensitivity”. Also, the “growth rate (MTT)” value in the experiment with Hep3B cells is “little changes in the growth rate”. Also, in the experiment with miR-34a, the “pri-miR-34a and miR-34a levels in xenografted tumors” value was “up-regulated”. Also, the “tube score mean (microvessels, CD31 staining)” value in the experiment on HepG2 xenografted tumors was determined as 12.50. Further, the miR-34a promoter activity entry is given as “increased” in the experiment on miR-34a promoter (Bel-7404 (p53 mutant)), “no change” in the experiment on miR-34a promoter (Hep3B (p53 deletion)) and “increased” in the experiment with miR-34a promoter (HepG2 (p53 wild type)). Also, at p53, the “p53 occupancy on miR-34a promoter” value is “significantly increased p53 occupancy”.
